This is an account of results in patent publication US8236841B2, “Fused heterocycle derivative” (Kyowa Hakko Kirin Co., Ltd., priority 2006, dated 2012).

For test [1], the system named is rats with chronic constriction nerve injury. As to the kind of experiment: Analgesic effect in rats with chronic constriction nerve injury (von Frey filament). Type of test: in vivo, rat. The settings on record: orally administered, dose of 50 mg/kg or less, one hour after administration, von Frey filaments. An excerpt:
Analgesic Effect of Compounds in Rats with Chronic Constriction Nerve Injury
Rats with chronic constriction nerve injury were produced by partially modifying the method of Mosconi and Kruger et al. (Pain, vol. 64, pp. 37-57 (1996)).
Male Crl:CD(SD) rats were used for the experiments. Under pentobarbital anesthesia, the sciatic nerve of the left hind limb of the rat was exfoliated, and the exfoliated region was wrapped with a polyethylene tube (trade name: Intramedic, size: PE-60, manufactured by Becton Dickinson and Company) of 2 mm in length. On days 14 to 21 after the surgery, the rats were placed in an acrylic connected cage with a wire mesh floor (900 mm (length)×210 mm (depth)×140 mm (height)) consisting of 4 cages connected in a row and allowed to acclimate to the environment for at least 20 minutes, and then, the pain was evaluated.
The von Frey filament (trade name: touch test sensory evaluator, Model number: model 58011, manufactured by Muromachi Kikai) was used to evaluate pain, and the results were calculated as a pain threshold. That is, by using a von Frey filament of different stimulus intensity, stimulation was given to the plantar surface of the injured side of rats with chronic constriction nerve injury, and the stimulus intensity to cause paw withdrawal response was obtained. Then, the 50% pain threshold (Paw withdrawal threshold) (g) was calculated by the up down method of Dixon [Annual Review of Pharmacology and Toxicology, vol. 20, pp. 441-462 (1980)].
In the evaluation of the test compound, rats with 50% pain threshold of less than 4 g were used, and the test compound was dissolved in a 0.5% aqueous methyl cellulose solution and orally administered at a dose of 5 mL/kg. One hour after the administration, the pain threshold was measured using von Frey filaments.

Test [2] deals with T1, CB2 receptor (Rattus norvegicus, UniProt Q9QZN9).
T1 construct: from tissue; host or cells: rat spleen membranes
T1 sequence (Q9QZN9 1-360): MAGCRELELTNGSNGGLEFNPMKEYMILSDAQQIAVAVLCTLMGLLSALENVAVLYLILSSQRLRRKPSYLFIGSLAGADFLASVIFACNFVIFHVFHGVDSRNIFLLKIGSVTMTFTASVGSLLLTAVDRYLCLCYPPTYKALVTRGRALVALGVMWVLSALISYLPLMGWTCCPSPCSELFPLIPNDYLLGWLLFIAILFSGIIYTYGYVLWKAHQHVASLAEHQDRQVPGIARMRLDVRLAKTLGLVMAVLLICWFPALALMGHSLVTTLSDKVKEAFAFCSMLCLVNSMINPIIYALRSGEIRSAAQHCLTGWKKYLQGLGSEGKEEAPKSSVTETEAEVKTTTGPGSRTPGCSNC
As to the kind of experiment: [3H]CP55940 binding assay, CB2 receptor (rat spleen membrane). As to conditions: [3H]CP55940 0.5 nmol/L, 25° C. 1 hour. As for the experimental part: Cannabinoid CB1 and CB2 receptor-binding activities
The assay was performed according to a method of Hillard et al. (The Journal of Pharmacology and Experimental Therapeutics, vol. 289, p. 1427 (1999)). A rat forebrain membrane sample was prepared for use in the binding assay for CB1 receptor, and a rat spleen membrane sample was prepared for use in the binding assay for CB2 receptor. Each membrane sample (forebrain: final concentration of 0.5 mg·protein/mL, spleen: final concentration of 2 mg·protein/mL) together with each test compound and [^3H]CP55940 ((−)-cis-3-[2-hydroxy-[3,5-^3H]-4-(1,1-dimethylheptyl)-phenyl]-trans-4-(3-hydroxypropyl)cyclohexanol, manufactured by PerkinElmer, final concentration of 0.5 nmol/L), was incubated at 25° C. for 1 hour in the assay buffer solution (50 mmol/L Tris-HCl buffer solution (pH 7.4), 1 mmol/L EDTA and 3 mmol/L MgCl2) containing 0.1% bovine serum albumin. Then, the mixture was filtered through a glass filter GF/C (manufactured by Whatman) pretreated with 1% polyethyleneimine. After the glass filter was washed with the assay buffer solution containing 0.2% bovine serum albumin, the radioactivity on the glass filter was measured using a liquid scintillation counter (TRI-CARB 2700TR, manufactured by Packard). The nonspecific binding amount was defined as a binding amount in the presence of 10 μmol/L […] ((R)-(+)-[2,3-dihydro-5-methyl-3-(4-morpholinylmethyl)-pyrrolo[1,2,3-de]-1,4-benzoxazin-6-yl]-1-naphthalenylmethanone, manufactured by Tocris). The specific binding amount was presented as the difference between the total binding amount and the nonspecific binding amount. The 50% inhibitory concentration (IC50 value) of the test compound in the specific binding was determined. The Ki value of the test compound was calculated from this IC50 value and the Kd value for [^3H]CP55940 binding.

The target in test [3] is T2, human CB2 receptor (Homo sapiens, UniProt P34972).
T2 construct: expressed in transfected cells
As to the kind of experiment: GTPγS binding assay via human CB2 receptor. Type of test: biochemical. The settings on record: membrane of human CB2 receptor stably expressing CHO-K1 cells; for EC50: read-out: EC50 value (agonist activity, [35S]GTPγS binding); for Emax: read-out: Emax value (maximum effect relative to CP55940 set to 100%). The procedure: GTPγS binding assay via human CB2 receptor
The assay was performed according to a method of Hillard et al. (The Journal of Pharmacology and Experimental Therapeutics, vol. 289, p. 1427 (1999)). For use as a membrane sample, a membrane fraction was prepared from human CB2 receptor stably expressing CHO-K1 cells (Nature, vol. 365, pp. 61-65 (1993)). The membrane sample (final concentration of 40 μg·protein/mL) together with each test compound and [^35S]GTPγS (manufactured by PerkinElmer, final concentration of 0.05 nmol/L), was incubated at 30° C. for 1 hour in the assay buffer solution (50 mmol/L Tris-HCl buffer solution (pH 7.4), 100 mmol/L NaCl, 1 mmol/L EDTA, 3 mmol/L MgCl2 and 0.1% bovine serum albumin) containing 20 μmol/L guanosine 5′-diphosphate (GDP). Then, the mixture was filtered through a glass filter GF/B (manufactured by Whatman). After the glass filter was washed with the assay buffer solution, the radioactivity on the glass filter was measured using a liquid scintillation counter (TRI-CARB 2700TR, manufactured by Packard). The nonspecific binding amount was defined as a binding amount in the presence of 10 μmol/L GTPγS. The specific binding amount was presented as the difference between the total binding amount and the nonspecific binding amount. The increase rate of the specific binding amount in the presence of the test compound relative to the specific binding amount in the absence of the test compound was defined as agonist activity of the test compound. The concentration which gives 50% of the maximum effect of the test compound (EC50 value) was calculated by nonlinear regression analysis of the concentration-response curve. The percentage of the maximum effect of the test compound (Emax value) was calculated based on the maximum effect of CP55940 (manufactured by Tocris) measured simultaneously set to 100%.
Background: Binding of GTPγS marks nucleotide exchange on a G protein.

T2 sequence (P34972 whole entry): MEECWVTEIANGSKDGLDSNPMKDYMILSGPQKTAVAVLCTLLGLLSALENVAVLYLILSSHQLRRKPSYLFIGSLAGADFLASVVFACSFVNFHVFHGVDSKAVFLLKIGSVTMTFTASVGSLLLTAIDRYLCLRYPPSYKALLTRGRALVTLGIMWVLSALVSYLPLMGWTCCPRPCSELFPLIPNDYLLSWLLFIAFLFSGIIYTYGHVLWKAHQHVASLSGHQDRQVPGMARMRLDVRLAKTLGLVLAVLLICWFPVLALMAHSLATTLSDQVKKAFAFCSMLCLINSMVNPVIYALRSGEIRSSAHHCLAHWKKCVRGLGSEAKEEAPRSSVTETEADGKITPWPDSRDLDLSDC

One may read the Ki as a measure of affinity in units of concentration, obtained from inhibition or displacement. By EC50 is commonly meant the concentration giving half of the maximal effect. As a reminder, the Emax is the maximal effect, on the per cent scale that the assay sets. For the molecule `CC(C)N(C)C(=O)c1ccn2c(CC3CCOCC3)c(C(C)(C)C)nc2c1` [Compound 17, 2-tert-Butyl-N-isopropyl-N-methyl-3-(tetrahydropyran-4-ylmethyl)-imidazo[1,2-a]pyridine-7-carboxamide], the “50% pain threshold (Paw withdrawal threshold)” value (from here on “50% pain threshold”) in test [1] is listed as “significantly increased the pain threshold”. The Ki in test [2] was less than 1000 nM. In test [3], the concentration giving a half-maximal response (EC50) is less than 1000 nM and the maximal response (Emax) is more than 30%.
Take `CCN(CC)C(=O)c1ccn2c(CC3CCOCC3)c(C(C)(C)C)nc2c1` [Compound 2, 2-tert-Butyl-N,N-diethyl-3-(tetrahydropyran-4-ylmethyl)-imidazo[1,2-a]pyridine-7-carboxamide]: the “50% pain threshold” value in test [1] is on record as “significantly increased the pain threshold”. In test [2], this molecule came in with an inhibition constant Ki of less than 1000 nM. Also, in test [3], the 50% effective concentration (EC50) is less than 1000 nM and the maximum response (Emax) was more than 30%.
In test [2], `CCN(CC)C(=O)c1ccn2c(CC3CCCCC3)c(C(C)(C)C)nc2c1` [Compound 1, 2-tert-Butyl-3-cyclohexylmethyl-N,N-diethylimidazo[1,2-a]-pyridine-7-carboxamide] registered a Ki of less than 1000 nM. Also, in test [3], the EC50 was less than 1000 nM and the Emax is more than 30%.
On to `CCN(CC)C(=O)c1cc2nc(C(C)(C)C)c(CC3CCCCC3)n2cn1` [Compound 14, 2-tert-Butyl-3-cyclohexylmethyl-N,N-diethyl-imidazo[1,2-c]-pyrimidine-7-carboxamide], for which, in test [2], the inhibitory constant (Ki) was less than 1000 nM. For the same molecule, in test [3], the concentration for a half-maximal effect (EC50) is less than 1000 nM and the Emax was more than 30%.
For `CCN(CC)C(=O)c1cc2nc(C(C)(C)C)c(CC3CCOCC3)n2cn1` [Compound 15, 2-tert-Butyl-N,N-diethyl-3-(tetrahydropyran-4-ylmethyl)-imidazo[1,2-c]pyrimidine-7-carboxamide], in test [1], the “50% pain threshold” value is recorded as “significantly increased the pain threshold”. The inhibition constant (Ki) in test [2] is less than 1000 nM. Further, in test [3], the EC50 was less than 1000 nM and the Emax is more than 30%.
Turning to `CC(C)CN(C)C(=O)c1ccn2c(CC3CCOCC3)c(C(C)(C)C)nc2c1` [Compound 18, 2-tert-Butyl-N-isobutyl-N-methyl-3-(tetrahydropyran-4-ylmethyl)imidazo[1,2-a]pyridine-7-carboxamide], in test [1], the “50% pain threshold” value is reported as “significantly increased the pain threshold”. Moreover, the Ki in test [2] is less than 1000 nM. Also, in test [3], the EC50 is less than 1000 nM and the maximum response (Emax) is more than 30%.
In turn, `CCN(CC)C(=S)c1ccn2c(CC3CCOCC3)c(C(C)(C)C)nc2c1` [Compound 8, 2-tert-Butyl-N,N-diethyl-3-(tetrahydropyran-4-ylmethyl)-imidazo[1,2-a]pyridine-7-carbothioamide] yielded a Ki in test [2] of less than 1000 nM. Also, in test [3], the EC50 was less than 1000 nM and the Emax was more than 30%.
The molecule `CCN(CC)C(=S)c1cc2nc(C(C)(C)C)c(CC3CCOCC3)n2cn1` [Compound 16, 2-tert-Butyl-N,N-diethyl-3-(tetrahydropyran-4-ylmethyl)-imidazo[1,2-c]pyrimidine-7-carbothioamide] registered an inhibition constant Ki in test [2] of less than 1000 nM. In test [3], the half-maximal effective concentration (EC50) was less than 1000 nM and the Emax was more than 30%.
As to `CCN(CC)C(=O)c1ccn2c(CC3CCCCO3)c(C(C)(C)C)nc2c1` (centres unmarked) [Compound 27, 2-tert-Butyl-N,N-diethyl-3-(tetrahydropyran-2-ylmethyl)-imidazo[1,2-a]pyridine-7-carboxamide], the Ki in test [2] is less than 1000 nM.
